According to ChEMBL document CHEMBL4765227, “Hit to lead optimization of a series of N-[4-(1,3-benzothiazol-2-yl)phenyl]acetamides as monoacylglycerol lipase inhibitors with potential anticancer activity” (Eur J Med Chem, 2016):

Tests used:
Format in all cases: functional
Settings in all cases: read-out: GI
HCT-116 = experiment: Growth inhibition of human HCT-116 cells at 10 uM incubated for 48 hrs by sulforhodamine B assay relative to control
OVCAR-5 = experiment: Growth inhibition of human OVCAR-5 cells at 10 uM incubated for 48 hrs by sulforhodamine B assay relative to control
HT-29 = experiment: Growth inhibition of human HT-29 cells at 10 uM incubated for 48 hrs by sulforhodamine B assay relative to control
NCI-H460 = experiment: Growth inhibition of human NCI-H460 cells at 10 uM incubated for 48 hrs by sulforhodamine B assay relative to control
MDA-MB-468 = experiment: Growth inhibition of human MDA-MB-468 cells at 10 uM incubated for 48 hrs by sulforhodamine B assay relative to control
SK-OV-3 = experiment: Growth inhibition of human SK-OV-3 cells at 10 uM incubated for 48 hrs by sulforhodamine B assay relative to control
UACC-62 = experiment: Growth inhibition of human UACC-62 cells at 10 uM incubated for 48 hrs by sulforhodamine B assay relative to control
PC-3 = experiment: Growth inhibition of human PC-3 cells at 10 uM incubated for 48 hrs by sulforhodamine B assay relative to control
SNB-19 = experiment: Growth inhibition of human SNB-19 cells at 10 uM incubated for 48 hrs by sulforhodamine B assay relative to control
CAKI-1 = experiment: Growth inhibition of human CAKI-1 cells at 10 uM incubated for 48 hrs by sulforhodamine B assay relative to control
RXF 393 = experiment: Growth inhibition of human RXF 393 cells at 10 uM incubated for 48 hrs by sulforhodamine B assay relative to control
HCT-15 = experiment: Growth inhibition of human HCT-15 cells at 10 uM incubated for 48 hrs by sulforhodamine B assay relative to control
IGROV-1 = experiment: Growth inhibition of human IGROV-1 cells at 10 uM incubated for 48 hrs by sulforhodamine B assay relative to control
NCI-H226 = experiment: Growth inhibition of human NCI-H226 cells at 10 uM incubated for 48 hrs by sulforhodamine B assay relative to control
MDA-MB-435 = experiment: Growth inhibition of human MDA-MB-435 cells at 10 uM incubated for 48 hrs by sulforhodamine B assay relative to control
SW-620 = experiment: Growth inhibition of human SW-620 cells at 10 uM incubated for 48 hrs by sulforhodamine B assay relative to control
TK-10 = experiment: Growth inhibition of human TK-10 cells at 10 uM incubated for 48 hrs by sulforhodamine B assay relative to control
SN12C = experiment: Growth inhibition of human SN12C cells at 10 uM incubated for 48 hrs by sulforhodamine B assay relative to control
A549 = experiment: Growth inhibition of human A549/ATCC cells at 10 uM incubated for 48 hrs by sulforhodamine B assay relative to control
T47D = experiment: Growth inhibition of human T47D cells at 10 uM incubated for 48 hrs by sulforhodamine B assay relative to control
SNB-75 = experiment: Growth inhibition of human SNB-75 cells at 10 uM incubated for 48 hrs by sulforhodamine B assay relative to control
ACHN = experiment: Growth inhibition of human ACHN cells at 10 uM incubated for 48 hrs by sulforhodamine B assay relative to control
HOP-62 = experiment: Growth inhibition of human HOP-62 cells at 10 uM incubated for 48 hrs by sulforhodamine B assay relative to control
RPMI-8226 = experiment: Growth inhibition of human RPMI-8226 cells at 10 uM incubated for 48 hrs by sulforhodamine B assay relative to control
MDA-MB-231 = experiment: Growth inhibition of human MDA-MB-231 cells at 10 uM incubated for 48 hrs by sulforhodamine B assay relative to control
DU-145 = experiment: Growth inhibition of human DU-145 cells at 10 uM incubated for 48 hrs by sulforhodamine B assay relative to control
HOP-92 = experiment: Growth inhibition of human HOP-92 cells at 10 uM incubated for 48 hrs by sulforhodamine B assay relative to control
NCI/ADR-RES = experiment: Growth inhibition of human NCI/ADR-RES cells at 10 uM incubated for 48 hrs by sulforhodamine B assay relative to control
NCI-H522 = experiment: Growth inhibition of human NCI-H522 cells at 10 uM incubated for 48 hrs by sulforhodamine B assay relative to control
BT-549 = experiment: Growth inhibition of human BT-549 cells at 10 uM incubated for 48 hrs by sulforhodamine B assay relative to control
HCC 2998 = experiment: Growth inhibition of human HCC 2998 cells at 10 uM incubated for 48 hrs by sulforhodamine B assay relative to control
MOLT-4 = experiment: Growth inhibition of human MOLT-4 cells at 10 uM incubated for 48 hrs by sulforhodamine B assay relative to control
NCI-H322M = experiment: Growth inhibition of human NCI-H322M cells at 10 uM incubated for 48 hrs by sulforhodamine B assay relative to control
UO-31 = experiment: Growth inhibition of human UO-31 cells at 10 uM incubated for 48 hrs by sulforhodamine B assay relative to control
SK-MEL-28 = experiment: Growth inhibition of human SK-MEL-28 cells at 10 uM incubated for 48 hrs by sulforhodamine B assay relative to control
OVCAR-8 = experiment: Growth inhibition of human OVCAR-8 cells at 10 uM incubated for 48 hrs by sulforhodamine B assay relative to control
CCRF-CEM = experiment: Growth inhibition of human CCRF-CEM cells at 10 uM incubated for 48 hrs by sulforhodamine B assay relative to control
HL-60(TB) = experiment: Growth inhibition of human HL-60(TB) cells at 10 uM incubated for 48 hrs by sulforhodamine B assay relative to control
KM12 = experiment: Growth inhibition of human KM12 cells at 10 uM incubated for 48 hrs by sulforhodamine B assay relative to control
U-251 = experiment: Growth inhibition of human U-251 cells at 10 uM incubated for 48 hrs by sulforhodamine B assay relative to control
M14 = experiment: Growth inhibition of human M14 cells at 10 uM incubated for 48 hrs by sulforhodamine B assay relative to control
K562 = experiment: Growth inhibition of human K562 cells at 10 uM incubated for 48 hrs by sulforhodamine B assay relative to control
Malme-3M = experiment: Growth inhibition of human Malme-3M cells at 10 uM incubated for 48 hrs by sulforhodamine B assay relative to control
SK-MEL-5 = experiment: Growth inhibition of human SK-MEL-5 cells at 10 uM incubated for 48 hrs by sulforhodamine B assay relative to control

NS(=O)(=O)c1ccc(NCC(=O)Nc2ccc(-c3nc4ccccc4s3)cc2)cc1
inhibition of growth at 10 µM (HCT-116): 74.9%
inhibition of growth at 10 µM (OVCAR-5): -5.64%
inhibition of growth at 10 µM (HT-29): 25.5%
inhibition of growth at 10 µM (NCI-H460): 7.45%
inhibition of growth at 10 µM (MDA-MB-468): 95.7%
inhibition of growth at 10 µM (SK-OV-3): -5.77%
inhibition of growth at 10 µM (UACC-62): 62%
inhibition of growth at 10 µM (PC-3): 35.3%
inhibition of growth at 10 µM (SNB-19): 25.7%
inhibition of growth at 10 µM (CAKI-1): 7.14%
inhibition of growth at 10 µM (RXF 393): 0.08%
inhibition of growth at 10 µM (HCT-15): 53.4%
inhibition of growth at 10 µM (IGROV-1): 41%
inhibition of growth at 10 µM (NCI-H226): 16.3%
inhibition of growth at 10 µM (MDA-MB-435): 23%
inhibition of growth at 10 µM (SW-620): 36.3%
inhibition of growth at 10 µM (TK-10): -5.51%
inhibition of growth at 10 µM (SN12C): 52.2%
inhibition of growth at 10 µM (A549): 7.37%
inhibition of growth at 10 µM (T47D): 53.6%
inhibition of growth at 10 µM (SNB-75): 30.5%
inhibition of growth at 10 µM (ACHN): -4.96%
inhibition of growth at 10 µM (HOP-62): -17.8%
inhibition of growth at 10 µM (RPMI-8226): 63.3%
inhibition of growth at 10 µM (MDA-MB-231): 55%
inhibition of growth at 10 µM (DU-145): 53%
inhibition of growth at 10 µM (HOP-92): 26.5%
inhibition of growth at 10 µM (NCI/ADR-RES): 5.97%
inhibition of growth at 10 µM (NCI-H522): 164%
inhibition of growth at 10 µM (BT-549): 85.5%
inhibition of growth at 10 µM (HCC 2998): 12.4%
inhibition of growth at 10 µM (MOLT-4): 93.8%
inhibition of growth at 10 µM (NCI-H322M): 12%
inhibition of growth at 10 µM (UO-31): 25.6%
inhibition of growth at 10 µM (SK-MEL-28): 0.58%
inhibition of growth at 10 µM (OVCAR-8): 17.3%
inhibition of growth at 10 µM (CCRF-CEM): 93.8%
inhibition of growth at 10 µM (HL-60(TB)): 66.6%
inhibition of growth at 10 µM (KM12): 38.4%
inhibition of growth at 10 µM (U-251): 28.7%
inhibition of growth at 10 µM (M14): 54.4%
inhibition of growth at 10 µM (K562): 91.6%
inhibition of growth at 10 µM (Malme-3M): 46.4%
inhibition of growth at 10 µM (SK-MEL-5): 28.7%

O=C(CNc1c(Cl)cccc1Cl)Nc1ccc(-c2nc3ccccc3s2)cc1
inhibition of growth at 10 µM (HCT-116): 70.1%
inhibition of growth at 10 µM (OVCAR-5): -10.4%
inhibition of growth at 10 µM (HT-29): 30.2%
inhibition of growth at 10 µM (NCI-H460): 8.81%
inhibition of growth at 10 µM (MDA-MB-468): 107%
inhibition of growth at 10 µM (SK-OV-3): 2.25%
inhibition of growth at 10 µM (UACC-62): 64.9%
inhibition of growth at 10 µM (PC-3): 14.1%
inhibition of growth at 10 µM (SNB-19): 26.1%
inhibition of growth at 10 µM (CAKI-1): 71.2%
inhibition of growth at 10 µM (RXF 393): 13.4%
inhibition of growth at 10 µM (HCT-15): 97.6%
inhibition of growth at 10 µM (IGROV-1): 50.7%
inhibition of growth at 10 µM (NCI-H226): 45.6%
inhibition of growth at 10 µM (MDA-MB-435): 32.1%
inhibition of growth at 10 µM (SW-620): 64.7%
inhibition of growth at 10 µM (TK-10): -6.12%
inhibition of growth at 10 µM (SN12C): 52%
inhibition of growth at 10 µM (A549): 14.3%
inhibition of growth at 10 µM (T47D): 119%
inhibition of growth at 10 µM (SNB-75): 40.8%
inhibition of growth at 10 µM (ACHN): 57.7%
inhibition of growth at 10 µM (HOP-62): -18.3%
inhibition of growth at 10 µM (RPMI-8226): 40.2%
inhibition of growth at 10 µM (MDA-MB-231): 43.1%
inhibition of growth at 10 µM (DU-145): 14.3%
inhibition of growth at 10 µM (HOP-92): 5.78%
inhibition of growth at 10 µM (NCI/ADR-RES): 36%
inhibition of growth at 10 µM (NCI-H522): 193%
inhibition of growth at 10 µM (BT-549): 78%
inhibition of growth at 10 µM (HCC 2998): 64.4%
inhibition of growth at 10 µM (MOLT-4): 94.4%
inhibition of growth at 10 µM (NCI-H322M): 5.42%
inhibition of growth at 10 µM (UO-31): 26.3%
inhibition of growth at 10 µM (SK-MEL-28): -3.93%
inhibition of growth at 10 µM (OVCAR-8): 33.3%
inhibition of growth at 10 µM (CCRF-CEM): 97.8%
inhibition of growth at 10 µM (HL-60(TB)): 29.3%
inhibition of growth at 10 µM (KM12): 8.67%
inhibition of growth at 10 µM (U-251): 72.3%
inhibition of growth at 10 µM (M14): 44.3%
inhibition of growth at 10 µM (K562): 89.5%
inhibition of growth at 10 µM (Malme-3M): 150%
inhibition of growth at 10 µM (SK-MEL-5): 78.8%
